Test results published in patent publication US6706663B2, “Herbicidal 3-heterocyclic substituted benzisothiazole and benzisoxazole compounds” (Wyeth, priority 2000, dated 2004).

Experiments:
[1] = test system: ABUTH (Abutilon theophrasti); assay: Preemergence herbicidal evaluation; type: in vivo, Medic.; conditions: preemergence, rate 1.0000 kg/ha, rated 4-5 weeks after treatment
GALAP (Galium aparine) = assay: Preemergence herbicidal evaluation; type: in vivo; conditions: preemergence, rate 1.0000 kg/ha, rated 4-5 weeks after treatment
Summary of the method: (§1)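 Seeds planted in potting soil cups and sprayed preemergence with aqueous acetone compound solution. Greenhouse-grown; rated 4–5 weeks after treatment on a 0-9 visual scale (stand, vigor, malformation, size, chlorosis, appearance) versus control.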

[2] = test system: GLXMAW (Soybean, Williams); assay: Preemergence herbicidal evaluation; type: in vivo, Glycine max, (L.) Merr. cv Williams; conditions: preemergence, rate 1.0000 kg/ha, rated 4-5 weeks after treatment
SETVI (Setaria viridis) [3] = assay: Preemergence herbicidal evaluation; type: in vivo, (L.) Beau; conditions: preemergence, rate 1.0000 kg/ha, rated 4-5 weeks after treatment
Summary of the method: as §1

[4] = test system: ECHCG (Echinochloa crus-galli); assay: Preemergence herbicidal evaluation; type: in vivo, (L.) Beau; conditions: preemergence, rate 1.0000 kg/ha, rated 4-5 weeks after treatment
Summary of the method: as §1

[5] = test system: CHEAL (Chenopodium album); assay: Preemergence herbicidal evaluation; type: in vivo, L.; conditions: preemergence, rate 1.0000 kg/ha, rated 4-5 weeks after treatment
Summary of the method: as §1

[6] = test system: AMBEL (Ambrosia artemisifolia); assay: Preemergence herbicidal evaluation; type: in vivo, L.; conditions: preemergence, rate 1.0000 kg/ha, rated 4-5 weeks after treatment
Summary of the method: as §1

ZEAMX (Corn, Field) [7] = assay: Preemergence herbicidal evaluation; type: in vivo, Zea mays, L.; conditions: preemergence, rate 1.0000 kg/ha, rated 4-5 weeks after treatment
[8] = test system: TRZAWR (Wheat, Winter, cv Riband); assay: Preemergence herbicidal evaluation; type: in vivo, Triticum aestivum; conditions: preemergence, rate 1.0000 kg/ha, rated 4-5 weeks after treatment
Summary of the method: as §1

ORYSAT (Rice, Tebonnet) = assay: Preemergence herbicidal evaluation; type: in vivo, Oryza sativa, (L.) Tebonnet; conditions: preemergence, rate 1.0000 kg/ha, rated 4-5 weeks after treatment
IPOSS (Ipomoea Spp.) = assay: Preemergence herbicidal evaluation; type: in vivo; conditions: rate 1.0000 kg/ha, rated 4-5 weeks after treatment
Text: (§2) Results of herbicide evaluation are expressed on a rating scale (0-9). The scale is based upon a visual observation of plant stand, vigor, malformation, size, chlorosis and overall plant appearance as compared with a control.
The preemergence herbicidal activity of the test compounds of the present invention is exemplified by the following tests in which the seeds of a variety of monocotyledonous and dicotyledonous plants are separately mixed with potting soil and planted on top of approximately one inch of soil in separate pint cups. After planting, the cups are sprayed with the selected aqueous acetone solution containing test compound in sufficient quantity to provide the equivalent of about […] per hectare of test compound per cup. The treated cups are then placed on greenhouse benches, watered and cared for in accordance with conventional greenhouse procedures. From four to five weeks after treatment, the tests are terminated and each cup is examined and rated according to the rating system provided in Example 87. The plant species used and the compounds evaluated are the same as those shown in Example 87.

[9] = test system: IPOHE (Ipomoea hederacea); assay: Postemergence herbicidal evaluation; type: in vivo, (L.) Jacq.; conditions: postemergence
Summary of the method: (§3)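 Seedlings grown about two weeks in flats, sprayed, then kept under standard greenhouse care. Rated visually 4–5 weeks after treatment on a 0–9 scale (stand, vigour, malformation, size, chlorosis, overall appearance) relative to untreated control; repeat tests averaged.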

[10] = test system: ECHCG (Echinochloa crus-galli); assay: Postemergence herbicidal evaluation; type: in vivo, (L.) Beau; conditions: postemergence
Summary of the method: as §3

[11] = test system: ABUTH (Abutilon theophrasti); assay: Postemergence herbicidal evaluation; type: in vivo, Medic.; conditions: postemergence
Summary of the method: as §3

SETVI (Setaria viridis) [12] = assay: Postemergence herbicidal evaluation; type: in vivo, (L.) Beau; conditions: postemergence
Summary of the method: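 Seedlings grown about two weeks were sprayed with compound in 50/50 acetone/water containing 0.5% TWEEN 20, at about 0.0040 to 1.000 kg/ha via nozzle at 40 psi. Plants were kept under greenhouse conditions and visually rated on a 0-9 scale versus control four to five weeks after treatment; replicate tests averaged.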

GLXMA (Soybean) = assay: Postemergence herbicidal evaluation; type: in vivo, Glycine max, (L.) Merr.; conditions: postemergence
Procedure: In the tests, seedling plants are grown in jiffy flats for about two weeks. The test compounds are dispersed in 50/50 acetone/water mixtures containing 0.5% TWEEN® 20, a polyoxyethylene sorbitan monolaurate surfactant of Atlas Chemical Industries, in sufficient quantities to provide the equivalent of about 0.0040 kg to 1.000 kg per hectare of active compound when applied to the plants through a spray nozzle operating at 40 psi for a predetermined time. After spraying, the plants are placed on greenhouse benches and are cared for in accordance with conventional greenhouse procedures. From four to five weeks after treatment, the seedling plants are examined and rated according to the rating system set forth below. Where more than one test is involved for a given compound, the data are averaged.
as §2

ZEAMX (Corn, Field) [13] = assay: Postemergence herbicidal evaluation; type: in vivo, Zea mays, L.; conditions: postemergence
Summary of the method: as §3

[14] = test system: CHEAL (Chenopodium album); assay: Postemergence herbicidal evaluation; type: in vivo, L.; conditions: postemergence
Summary of the method: as §3

[15] = test system: AMBEL (Ambrosia artemisifolia); assay: Postemergence herbicidal evaluation; type: in vivo, L.; conditions: postemergence
Summary of the method: as §3

Compound: Cn1c(C(F)(F)F)cc(=O)n(-c2ccc3snc(C4(O)N=C(c5ccccc5)NC4=O)c3c2)c1=O (stereo not drawn) [Compound 94, 3-[3-(4-hydroxy-5-oxo-2-phenyl-2-imidazolin-4-yl)-1,2-benzisothiazol-5-yl]-1-methyl-6-(trifluoromethyl)uracil]
- Preemergence herbicidal rating ABUTH [1]: 7.0
- Preemergence herbicidal rating GALAP (GALAP (Galium aparine)): 8.0
- Preemergence herbicidal rating GLXMAW [2]: 5.0
- Preemergence herbicidal rating SETVI (SETVI (Setaria viridis) [3]): 5.0
- Preemergence herbicidal rating ECHCG [4]: 2.0
- Preemergence herbicidal rating CHEAL [5]: 8.0
- Preemergence herbicidal rating AMBEL [6]: 5.0
- Preemergence herbicidal rating ZEAMX (ZEAMX (Corn, Field) [7]): 3.0
- Preemergence herbicidal rating TRZAWR [8]: 5.0
- Preemergence herbicidal rating ORYSAT (ORYSAT (Rice, Tebonnet)): 6.0
- Preemergence herbicidal rating IPOSS (IPOSS (Ipomoea Spp.)): 7.0

Compound: Cn1c(C(F)(F)F)cc(=O)n(-c2ccc3snc(C4(O)N=C(C(C)(C)C)NC4=O)c3c2)c1=O (stereo not drawn) [Compound 95, 3-[3-(2-tert-butyl-4-hydroxy-5-oxo-2-imidazolin-4-yl)-1,2-benzisothiazol-5-yl]-1-methyl-6-(trifluoromethyl)uracil]
- IPOHE herbicidal rating ([9]; rate 0.0320 kg/ha): 8.0
- IPOHE herbicidal rating ([9]; rate 0.0620 kg/ha): 9.0
- ECHCG herbicidal rating ([10]; rate 0.0320 kg/ha): 2.0
- ECHCG herbicidal rating ([10]; rate 0.0620 kg/ha): 3.0
- ABUTH herbicidal rating ([11]; rate 0.0320 kg/ha): 9.0
- ABUTH herbicidal rating ([11]; rate 0.0620 kg/ha): 9.0
- SETVI herbicidal rating (SETVI (Setaria viridis) [12]; rate 0.0320 kg/ha): 4.0
- SETVI herbicidal rating (SETVI (Setaria viridis) [12]; rate 0.0620 kg/ha): 7.0
- GLXMA herbicidal rating (GLXMA (Soybean); rate 0.0320 kg/ha): 8.0
- GLXMA herbicidal rating (GLXMA (Soybean); rate 0.0620 kg/ha): 8.0
- ZEAMX herbicidal rating (ZEAMX (Corn, Field) [13]; rate 0.0320 kg/ha): 3.5
- ZEAMX herbicidal rating (ZEAMX (Corn, Field) [13]; rate 0.0620 kg/ha): 3.5
- CHEAL herbicidal rating ([14]; rate 0.0320 kg/ha): 8.0
- CHEAL herbicidal rating ([14]; rate 0.0620 kg/ha): 9.0
- AMBEL herbicidal rating ([15]; rate 0.0320 kg/ha): 4.0
- AMBEL herbicidal rating ([15]; rate 0.0620 kg/ha): 8.0
